Results: patent US8703172B2, “Sphingolipids for improvement of the composition of the intestinal flora” (Nederlandse Organizatie voor …, priority 2003, dated 2014)
In brackets after ≈: the same amount, converted by molar mass. Entries after “also recorded” stand apart in the source; their conditions may differ. Like-named read-outs stand apart in the source and are kept apart here.

Legend:
[1] = system: Bifidobacterium adolescentis; assay: MIC on agar plates (RCBA); type: cell-based; conditions: RCBA agar plate, anaerobic, 72 hours at 30° C.; for MIC: Bifidobacterium adolescentis, read-out: MIC, B. adolescentis
Bacillus cereus = assay: MIC on agar plates (TSA); conditions: for MIC, B. cereus: TSA agar plate, aerobic, 48 hours at 30° C.; for MIC: Bacillus cereus, 48 h, read-out: MIC, B. cereus
Salmonella enteritidis = assay: MIC on agar plates (TSA); type: cell-based; conditions: TSA agar plate, aerobic, 48 hours at 30° C.; for MIC: Salmonella enterica, ENTERITIDIS, read-out: MIC, S. enteritidis
Fusobacterium nucleatum = assay: MIC on agar plates (RCBA); type: cell-based; conditions: for MIC: Fusobacterium nucleatum, read-out: MIC, F. nucleatum
Lactobacillus sake = assay: MIC on agar plates (MRSA); conditions: for MIC, L. sake: anaerobic, 72 hours at 30° C.; for MIC: Latilactobacillus sakei, 72 h, read-out: MIC, L. sake
Bacteroides fragilis = assay: MIC on agar plates (RCBA); type: cell-based; conditions: RCBA agar plate, anaerobic, 72 hours at 30° C.; for MIC: Bacteroides fragilis, read-out: MIC, B. fragilis
Enterococcus hirae = assay: MIC on agar plates (MRSA); conditions: for MIC, E. hirae: MRSA agar plate, anaerobic, 72 hours at 30° C.; for MIC: Enterococcus hirae, 72 h, read-out: MIC, E. hirae
[2] = system: Lactobacillus acidophilus; assay: MIC on agar plates (MRSA); conditions: for MIC, L. acidophilus: anaerobic, 72 hours at 30° C.; for MIC: Lactobacillus acidophilus, 72 h, read-out: MIC, L. acidophilus
Leuconostoc carnosum = assay: MIC on agar plates (MRSA); conditions: for MIC, L. carnosum: agar plate, anaerobic, 72 hours at 30° C.; for MIC: 72 h, read-out: MIC, L. carnosum
Listeria monocytogenes = assay: MIC on agar plates (TSA); conditions: for MIC, L. monocytogenes: TSA agar plate, aerobic, 48 hours at 30° C.; for MIC: Listeria monocytogenes, 48 h, read-out: MIC, L. monocytogenes
Gram-positive bacteria = assay: Antimicrobial activity on agar plates, summary for Gram-positive bacteria; type: cell-based
Clostridium spp. = assay: MIC on agar plates (RCBA); type: cell-based; conditions: for MIC: Clostridium, 72 h, read-out: MIC, C. spp.
[3] = system: Streptococcus suis type 2; assay: MIC on agar plates (TSA); conditions: for MIC, S. suis type 2: TSA agar plate, aerobic, 48 hours at 30° C.; for MIC: Streptococcus suis, TYPE2, 48 h, read-out: MIC, S. suis type 2
Pseudomonas aeruginosa = assay: MIC on agar plates (TSA); type: cell-based; conditions: TSA agar plate, aerobic, 48 hours at 30° C.; for MIC: Pseudomonas aeruginosa, read-out: MIC, P. aeruginosa
Lactobacillus casei = assay: MIC on agar plates (MRSA); conditions: for MIC, L. casei: MRSA agar plate, anaerobic, 72 hours at 30° C.; for MIC: Lacticaseibacillus casei, 72 h, read-out: MIC, L. casei
Bifidobacterium spp. = assay: MIC on agar plates (RCBA); type: cell-based; conditions: RCBA agar plate, anaerobic, 72 hours at 30° C.; for MIC: Bifidobacterium, read-out: MIC, Bif. spp.
[4] = system: Lactobacillus acidophilus; assay: Antimicrobial activity in small intestine model TIM-1; type: cell-based; conditions: 20 μg/ml of sphingolipid; lumen samples plated on Rogosa agar
Clostridium difficile [5] = assay: MIC on agar plates (RCBA); type: cell-based; conditions: Clostridioides difficile; RCBA agar plate, anaerobic, 72 hours at 30° C.
[6] = system: Lactobacillus acidophilus; assay: Survival in liquid ileum medium; conditions: within 200 minutes
[7] = type: in vitro ADME
Method: (§1) Because the sphingolipids need to be transported together with the food to the small and large intestines to be able to be active there, the transport of phytosphingosine and sphinganine in the stomach and small intestine model TIM-1 was tested. Also, the transport of phytosphingosine in a fistulated pig was tested after the animal had been fed with feed containing phytosphingosine (1 wt. %). In a fistulated pig, the small intestine is uncoupled from the large intestine so that the digested feed at the end of the small intestine can be collected.
To investigate whether sphingolipids from the food are transported through the small intestine without being absorbed or being chemically or enzymatically modified in the small intestine, phytosphingosine and sphinganine were mixed in a standard Tim-1 food and exposed to a TIM-1 treatment. Of each sphingolipid, 5 mg per 100 grams of food (0.005 wt. %) in the food were tested. After starting the TIM-1 digestion processes in the TIM-1 stomach, at the fixed times, lumen samples of 100 grams were taken. Also, dialysate samples were taken from the material which was transported through the semi-permeable TIM-1 membrane. The dialysate samples varied between 1428 and 1122 grams. […] Next to the samples, the exposure time in minutes is given.

Clostridium difficile [8] = assay: Survival in liquid ileum medium; type: cell-based; conditions: within 200 minutes
[9] = pig, in vivo
Method: as §1
To investigate in an in vivo system whether sphingolipids from the food do actually arrive in the large intestine and are not prematurely absorbed or metabolized, pig basic feed to which phytosphingosine (1 wt. %) was added was fed to a fistulated pig.
The feed was prepared by mixing a solution of phytosphingosine in ethanol with the feed and drying it in vacuo. Every hour, the intestinal content (chymus) at the end of the small intestine was separately collected and frozen dry. The dry intestinal contents were then extracted with chloroform/methanol (2:1, v/v). The extracts were then filtered over glass wool and evaporated under a nitrogen flow. The residues were examined for the presence of phytosphingosine, sphingosine, sphinganine and sphingomyelin by means of LC-MS.

Clostridium difficile [10] = assay: Antimicrobial activity in small intestine model TIM-1; type: cell-based; conditions: 20 μg/ml of sphingolipid; lumen samples plated on Clostridium difficile agar
Clostridium perfringens = assay: microbe, parasite or virus in culture; type: cell-based; conditions: 72 h, read-out: MIC, C. perfringens
bacteria tested = assay: Antimicrobial activity on agar plates, summary for the bacteria tested; type: cell-based
[11] = RCBA agar plate, anaerobic, 72 hours at 30° C.
[12] = ileum medium, absence of bile, 10 and 50 μg/ml
[13] = 60 min, 5 mg per 100 grams of food
[14] = 120 min, 5 mg per 100 grams of food
[15] = 180 min, 5 mg per 100 grams of food
[16] = 240 min, 5 mg per 100 grams of food

Compound: CCCCCCCCCCCCC/C=C/[C@@H](O)[C@@H](N)COP(=O)([O-])OCC[N+](C)(C)C [Lysosphingomyelin, lysosphingomyelin]
- MIC, B. adolescentis [1]: <3.1 µg/mL
- MIC, B. cereus (Bacillus cereus): <3.1 µg/mL
- MIC, S. enteritidis (Salmonella enteritidis): >365 µg/mL
- MIC, F. nucleatum (Fusobacterium nucleatum; [11]): >365 µg/mL
- MIC, L. sake (Lactobacillus sake): 20 µg/mL (≈ 43 µM)
- MIC, B. fragilis (Bacteroides fragilis): 11.4 µg/mL (≈ 24.5 µM)
- MIC, E. hirae (Enterococcus hirae): >365 µg/mL
- MIC, L. acidophilus [2]: 16.6 µg/mL (≈ 35.7 µM)
- MIC, L. carnosum (Leuconostoc carnosum): <3.1 µg/mL
- MIC, L. monocytogenes (Listeria monocytogenes): <3.1 µg/mL
- Antimicrobial activity against Gram-positive bacteria (Gram-positive bacteria; agar plates): killed; also recorded: strong antimicrobial activity
- MIC, C. spp. (Clostridium spp.; [11]): <3.1 µg/mL
- MIC, S. suis type 2 [3]: <3.1 µg/mL
- MIC, P. aeruginosa (Pseudomonas aeruginosa): >365 µg/mL
- MIC, L. casei (Lactobacillus casei): >365 µg/mL
- MIC, Bif. spp. (Bifidobacterium spp.): 10 µg/mL (≈ 21.5 µM)

Compound: CC(=O)O.CCCCCCCCCCCCCCC[C@@H](O)[C@@H](N)CO [Sphinganine, sphinganine acetate]
- MIC [1]: > 73 µg/mL
- MIC (Bacillus cereus): < 6.3 µg/mL
- MIC (Salmonella enteritidis): > 731 µg/mL
- Antimicrobial activity against Lactobacillus acidophilus in TIM-1 [4]: no demonstrable antimicrobial activity
- MIC (Fusobacterium nucleatum; 72 h): > 731 µg/mL
- MIC (Lactobacillus sake): > 70 µg/mL
- MIC (Clostridium difficile [5]): > 73 µg/mL
- MIC (Bacteroides fragilis): 0.3 µg/mL
- MIC (Enterococcus hirae): > 731 µg/mL
- Killing of Lactobacillus acidophilus [6, 12]: virtually completely killed
- Killing of Lactobacillus acidophilus ([6]; liquid cultures, 50 ppm): for the larger part killed
- Transport through the TIM-1 system [7]: transported to the large intestine to a sufficient extent
- Concentration in TIM-1 sample: Dialysate ileum 0-120′ ([7]; 5 mg per 100 grams of food): 0 ng/mL
- Concentration in TIM-1 sample: Dialysate ileum 120-240′ ([7]; 5 mg per 100 grams of food): 0 ng/mL
- Concentration in TIM-1 sample: Dialysate jejunum 0-120′ ([7]; 5 mg per 100 grams of food): 0 ng/mL
- Concentration in TIM-1 sample: Dialysate jejunum 120-240′ ([7]; 5 mg per 100 grams of food): 0 ng/mL
- Concentration in TIM-1 sample: Food ([7]; 5 mg per 100 grams of food): 19360 ng/mL
- Concentration in TIM-1 sample: Residue jejunum/ileum + dialysis fluid ([7]; 5 mg per 100 grams of food): 8620 ng/mL
- Concentration in TIM-1 sample: Residue stomach/duodenum + dialysis fluid ([7]; 5 mg per 100 grams of food): 2730 ng/mL
- Share of the amount used found in the samples (rough mass balance) ([7]; 5 mg per 100 grams of food): approx. 20%
- Concentration in TIM-1 sample: Lumen ileum 60′ [7, 13]: 740 ng/mL
- Concentration in TIM-1 sample: Lumen jejunum 60′ [7, 13]: 8750 ng/mL
- Concentration in TIM-1 sample: Lumen ileum 120′ [7, 14]: 4520 ng/mL
- Concentration in TIM-1 sample: Lumen jejunum 120′ [7, 14]: 11510 ng/mL
- Concentration in TIM-1 sample: Lumen ileum 180′ [7, 15]: 5300 ng/mL
- Concentration in TIM-1 sample: Lumen jejunum 180′ [7, 15]: 12470 ng/mL
- Concentration in TIM-1 sample: Lumen ileum 240′ [7, 16]: 7910 ng/mL
- Concentration in TIM-1 sample: Lumen jejunum 240′ [7, 16]: 10460 ng/mL
- MIC [2]: 222 µg/mL
- MIC (Leuconostoc carnosum): < 0.3 µg/mL
- Killing of Clostridium difficile (Clostridium difficile [8]; [12]): virtually completely killed
- Killing of Clostridium difficile (Clostridium difficile [8]; liquid cultures, 50 ppm): for the larger part killed
- MIC (Listeria monocytogenes): < 6.3 µg/mL
- Presence in the intestinal contents at the end of the small intestine [9]: small amounts
- Antimicrobial activity against Gram-positive bacteria (Gram-positive bacteria; agar plates, acetate): killed; also recorded: strong antimicrobial activity
- MIC (Clostridium spp.): > 73 µg/mL
- MIC [3]: < 6.3 µg/mL
- MIC (Pseudomonas aeruginosa): > 731 µg/mL
- MIC (Lactobacillus casei): 246 µg/mL
- Antimicrobial activity against Clostridium difficile in TIM-1 (Clostridium difficile [10]): no demonstrable antimicrobial activity
- MIC (Bifidobacterium spp.): 0.9 µg/mL
- MIC (Clostridium perfringens): > 36.5 µg/mL

Compound: CCCCCCCCCCCCC/C=C/[C@@H](O)[C@@H](N)CO [Sphingosine, sphingosine]
- MIC [1]: < 6.3 µg/mL
- MIC (Bacillus cereus): < 6.3 µg/mL
- MIC (Salmonella enteritidis): > 731 µg/mL
- MIC (Fusobacterium nucleatum; [11]): < 6.3 µg/mL
- MIC (Lactobacillus sake): < 6.3 µg/mL
- MIC (Bacteroides fragilis): < 6.3 µg/mL
- MIC (Enterococcus hirae): 84 µg/mL (≈ 280 µM)
- MIC [2]: < 6.3 µg/mL
- MIC (Leuconostoc carnosum): < 6.3 µg/mL
- MIC (Listeria monocytogenes): < 6.3 µg/mL
- Presence in the intestinal contents at the end of the small intestine [9]: No sphingosine could be demonstrated
- Antimicrobial activity against Gram-positive bacteria (Gram-positive bacteria): killed; also recorded: strong antimicrobial activity
- MIC (Clostridium spp.): < 6.3 µg/mL
- MIC [3]: < 6.3 µg/mL
- MIC (Pseudomonas aeruginosa): > 731 µg/mL
- MIC (Lactobacillus casei): < 6.3 µg/mL
- MIC (Bifidobacterium spp.): < 6.3 µg/mL

Compound: glucosylceramide III
- MIC, B. adolescentis [1]: >365 µg/mL
- MIC, B. cereus (Bacillus cereus): >365 µg/mL
- MIC, S. enteritidis (Salmonella enteritidis): >365 µg/mL
- MIC, F. nucleatum (Fusobacterium nucleatum; [11]): >365 µg/mL
- MIC, L. sake (Lactobacillus sake): >365 µg/mL
- Inhibition of the bacteria tested (bacteria tested): do not inhibit any of the bacteria tested
- MIC, B. fragilis (Bacteroides fragilis): >365 µg/mL
- MIC, E. hirae (Enterococcus hirae): >365 µg/mL
- MIC, L. acidophilus [2]: >365 µg/mL
- MIC, L. carnosum (Leuconostoc carnosum): >365 µg/mL
- MIC, L. monocytogenes (Listeria monocytogenes): >365 µg/mL
- MIC, C. spp. (Clostridium spp.): >365 µg/mL
- MIC, S. suis type 2 [3]: >365 µg/mL
- MIC, P. aeruginosa (Pseudomonas aeruginosa): >365 µg/mL
- MIC, L. casei (Lactobacillus casei): >365 µg/mL
- MIC, Bif. spp. (Bifidobacterium spp.): >365 µg/mL
